Test results as given in patent US10167507B2, “Metabolic diseases-related odorant receptor genes and use thereof” (INDUSTRY-ACADEMIC COOPERATION FOUNDATION, YONSEI UNIVERSITY, priority 2010, dated 2019).
One block for each molecule: values may come before it.

Assays:
[1] = system: obesity and metabolic diseases-related genes in liver tissue; test: RT-PCR of obesity and metabolic diseases-related genes, liver tissue; type: in vivo, mouse; settings: odor component-supplemented group to the HFD control group
Protocol: (§1) After adding 1 mL of Trizol agent (Invitrogen, USA) per 0.1 g of visceral fat or liver tissues, the mixture was homogenized and centrifuged at 12,000×g for 10 min at 4° C. The supernatant was transferred to a new tube and 200 μl of chloroform was added to the tube, followed by vortexing. The same procedure was repeated twice and then the supernatant was transferred to a new tube, followed by addition of isopropanol and the supernatant at 1:1 ratio. The mixture was vigorously shaken 10 times and then incubated for 10 min at room temperature, followed by centrifugation at 12,000×g for 10 min at 4° C. to remove the supernatant. After adding 1 mL of 70% ethanol to the remaining pellet, it was centrifuged at 7,500×g for 5 min at 4° C. After removing the ethanol, the RNA pellet contained in the tube was dried for 5 min at 4° C. and dissolved in nuclease-free water. The RNA sample concentration was measured at a wavelength of 260 nm and 280 nm using a UV/VIS spectrophotometer (Beckman coulter, DU730) and the integrity of RNA sample was verified by agarose gel electrophoresis. The RNA sample obtained from the visceral fat or liver tissues was trasnscribed using oligo dT primer and reverse transcriptase (GIBCO BRL, Gaithersburg, Md., USA) to synthesize cDNA. The PCR amplification was performed using the cDNA as templates and primers complementary to cDNA [NT] flanking sequence. 1 μl of the amplified products were resolved on agarose gel electrophoresis to verify DNA band.

[2] = system: CREB (cAMP-responsive element binding protein); test: Western blotting, protein phosphorylation of CREB; type: in vivo, mouse; settings: for CREB phosphorylation, increase (change rate): odor component-supplemented group to the HFD control group
Protocol: (§6) A certain amount of visceral fat or liver tissues in mortar was homogenized with liquid nitrogen and cell lysis buffer. The mixture was transferred to a new tube, followed by vortexing. After centrifugation at 13,000×g for 20 min at 4° C., the middle layer of the tube was obtained and proteins were quantified by Bradford method. 50 μg of protein was electrophorized to SDS polyacrylamide gel, followed by electroblotting to PVDF hyper film. The protein was reacted using an appropriate antibody for the protein and detected by ECL, whereby insulin resistance, adipocyte differentiation, lipid metabolism or energy consumption-related mechanism of phytochemical components was investigated in the protein level.
(§7) In order to verify this, protein phosphorylations of HSL (hormone sensitive lipase), CREB (cAMP-responsive element binding protein) and AKT (v-akt murine thymoma viral oncogene) were evaluated by western blotting analysis.

[3] = system: HSL (hormone sensitive lipase); test: Western blotting, protein phosphorylation of HSL; type: in vivo, mouse; settings: for HSL phosphorylation, increase (change rate): odor component-supplemented group to the HFD control group
Protocol: as §6, §7

[4] = system: olfactory receptors in liver tissue; test: OligoDNA microarray, liver tissue of HFD mice fed odor components; type: in vivo, mouse
From the text: (§2) The obesity-inducing control diet used in the test was high-fat diet (HFD: 40% fat calorie, 17 g lard+3% corn oil/100 g diet). Diets supplemented with an odor component had the same composition as HFD, except that each of various types of odor components (indol-3-carbinol, oleuropein, cedryl acetate, α-cedrene and piperine) having anti-obesity efficacy was contained in 0.02-0.05% concentration. Indo)-3-carbinol, oleuropein, cedryl acetate, a-cedrene and piperine were purchased from Sigma-Aldrich.
(§3) After adding Trizol agent to visceral fat or liver tissue, the mixture was homogenized and centrifuged at 12,000×g for 10 min at 4° C. The supernatant was transferred to a new tube to remove fat layer. Then, 200 μl of chloroform was added to the tube, followed by vortexing. The same procedure was repeated twice and then the supernatant was transferred to a new tube, followed by addition of isopropanol and the supernatant at 1:1 ratio. The mixture was vigorously shaken 10 times and then incubated for 10 min at room temperature, followed by centrifugation at 12,000×g for 10 min at 4° C. to remove the supernatant. After adding 1 mL of 70% ethanol to the remaining pellet, it was centrifuged at 7,500×g for 5 min at 4° C. After removing the ethanol, the RNA pellet contained in the tube was dried for 5 min at 4° C. and dissolved in nuclease-free water. The RNA sample concentration was measured at a wavelength of 260 nm and 280 nm using a UV/VIS spectrophotometer (Beckman coulter, DU730) and the integrity of RNA sample was verified by agarose gel electrophoresis.
(§4) DNA microarry analysis using RNAs of visceral fat and liver tissue was conducted by GENOCHECK (CO., LTD.). RNA samples were pooled from 10 mice in each experimental group and subjected to microarray experiments in triplicate for the test of reproducibility. NimbleGen Mouse Whole Oligo 12-plex chip used in this experiment was prepared by triplicating 42,576 genes using Mouse Genome Build 8 as database. In NimbleGen mouse Whole Oligo 12-plex chip, 137,090 spots excluded control group gene were spotted by 16 μm×16 μm size in 17.4 mm×13 mm size. 42,576 oligo included […] genes which are known their functions and 5,431 transcripts and EST sequences which are unknown their functions. 10-50 μg of total RNA was added in oligo-dT primer, reverse transcriptase, dNTP, Cy3-dUTP and Cy5-dUTP, and reverse-transcripted according to the kit manufacturer's recommendations. The resultant was purified using cartridge, dried and dissolved in hybridization buffer solution (30 μL). The microarray was placed in hybridization cassette, heated at 95-100° C. for 5 min, mixed independently to each of RNA labeled with Cy3 and Cy5, and hybridized at 45° C. for 18 hrs. The slide was washed twice in solution containing 1×SSC and 0.1% SDS for 5 min, washed in 1×SSC for 5 min and dried to analyze.
(§5) The profile for olfactory receptors in which the expression was regulated by more than 2-fold change due to intake of odor components at each tissue was shown in Tables 5. As a result, it was determined that various types of odor components having anti-obesity efficacy regulated a plurality of olfactory receptors in peripheral tissues.

[5] = system: olfactory receptors in visceral fat and liver tissues; test: OligoDNA microarray, visceral fat and liver tissues of HFD mice fed odor components (tissue not separated in text); type: in vivo; settings: supplemented to mouse fed high-fat diet for 10 weeks
From the text: as §2, §3, §4, §5

[6] = system: AKT (v-akt murine thymoma viral oncogene); test: Western blotting, protein phosphorylation of AKT; type: in vivo, mouse; settings: for AKT phosphorylation, increase (change rate): odor component-supplemented group to the HFD control group
Protocol: as §6, §7

[7] = system: olfactory receptors in visceral fat tissue; test: OligoDNA microarray, visceral fat tissue of HFD mice fed odor components; type: in vivo, mouse
Protocol: DNA microarry analysis using RNAs of visceral fat and liver tissue was conducted by GENOCHECK (CO., LTD.). RNA samples were pooled from 10 mice in each experimental group and subjected to microarray experiments in triplicate for the test of reproducibility. NimbleGen Mouse Whole Oligo 12-plex chip used in this experiment was prepared by triplicating 42,576 genes using Mouse Genome Build 8 as database. In NimbleGen mouse Whole Oligo 12-plex chip, 137,090 spots excluded control group gene were spotted by 16 μm×16 μm size in 17.4 mm×13 mm size. 42,576 oligo included 137,145 genes which are known their functions and 5,431 transcripts and EST sequences which are unknown their functions. 10-50 μg of total RNA was added in oligo-dT primer, reverse transcriptase, dNTP, Cy3-dUTP and Cy5-dUTP, and reverse-transcripted according to the kit manufacturer's recommendations. The resultant was purified using cartridge, dried and dissolved in hybridization buffer solution (30 μL). The microarray was placed in hybridization cassette, heated at 95-100° C. for 5 min, mixed independently to each of RNA labeled with Cy3 and Cy5, and hybridized at 45° C. for 18 hrs. The slide was washed twice in solution containing 1×SSC and 0.1% SDS for 5 min, washed in 1×SSC for 5 min and dried to analyze.

[8] = system: obesity and metabolic diseases-related genes in visceral fat tissue; test: RT-PCR of obesity and metabolic diseases-related genes, visceral fat tissue; type: in vivo, mouse; settings: odor component-supplemented group to the HFD control group
Protocol: as §1

[9] = western blotting, compared to the HFD control group
[10] = supplemented to HFD-fed mouse 10 weeks

expression of olfactory receptor 1045 [4]: decreased
Olfr290 expression fold change to HFD group [4, 10]: 2.11
Olfr1045 expression fold change to HFD group [4, 10]: 0.45
expression of olfactory receptor 16 decreased [5]: more than 2 fold change
expression of olfactory receptor 116 increased [5]: more than 2 fold change
expression of olfactory receptor 178 increased [5]: more than 2 fold change
expression of olfactory receptor 196 decreased [5]: more than 2 fold change
expression of olfactory receptor 259 decreased [5]: more than 2 fold change
expression of olfactory receptor 290 increased [5]: more than 2 fold change
expression of olfactory receptor 380 increased [5]: more than 2 fold change
expression of olfactory receptor 466 decreased [5]: more than 2 fold change
expression of olfactory receptor 686 decreased [5]: more than 2 fold change
expression of olfactory receptor 909 increased [5]: more than 2 fold change
expression of olfactory receptor 972 decreased [5]: more than 2 fold change
expression of olfactory receptor 1045 decreased [5]: more than 2 fold change
expression of olfactory receptor 1093 decreased [5]: more than 2 fold change
expression of olfactory receptor 1153 increased [5]: more than 2 fold change
expression of olfactory receptor 1165 decreased [5]: more than 2 fold change
expression of olfactory receptor 1216 decreased [5]: more than 2 fold change
expression of olfactory receptor 1329 decreased [5]: more than 2 fold change
expression of olfactory receptor 1337 decreased [5]: more than 2 fold change
expression of olfactory receptor 1462 increased [5]: more than 2 fold change
expression of olfactory receptor 380 [7]: increased
expression of olfactory receptor 1165 [7]: decreased
Olfr380 expression fold change to HFD group [7, 10]: 2.2
Olfr1165 expression fold change to HFD group [7, 10]: 0.39
Olfr1462 expression fold change to HFD group [7, 10]: 2.26
Compound: OCc1c[nH]c2ccccc12 [indol-3-carbinol]
C/EBPα gene expression, decrease (change rate) [1]: 25% decrease
CPT1 gene expression, increase (change rate) [1]: 33% increase^
FAS gene expression, decrease (change rate) [1]: 27% decrease
IL-6 gene expression, decrease (change rate) [1]: 45% decrease
PPARγ2 gene expression, decrease (change rate) [1]: 36% decrease
TNFα gene expression, decrease (change rate) [1]: 33% decrease
aP2 gene expression, decrease (change rate) [1]: 29% decrease
CREB phosphorylation, increase (change rate) [2]: 45% increase
phosphorylation of CREB [2, 9]: significantly increased
HSL phosphorylation, increase (change rate) [3]: 31% increase ^a)
phosphorylation of HSL [3, 9]: significantly increased
AKT phosphorylation, increase (change rate) [6]: 40% increase
phosphorylation of AKT [6, 9]: significantly increased
C/EBPα gene expression, decrease (change rate) [8]: 11% decrease^a)
CPT1 gene expression, increase (change rate) [8]: 25% increase^
FAS gene expression, decrease (change rate) [8]: 56% decrease
IL-6 gene expression, decrease (change rate) [8]: 76% decrease
PGC1α gene expression, increase (change rate) [8]: 120% increase ^
PPARγ2 gene expression, decrease (change rate) [8]: 20% decrease
SIRT1 gene expression, increase (change rate) [8]: 45% increase^
TNFα gene expression, decrease (change rate) [8]: 23% decrease
UCP1 gene expression, increase (change rate) [8]: 210% increase ^
UCP3 gene expression, increase (change rate) [8]: 72% increase^
aP2 gene expression, decrease (change rate) [8]: 44% decrease

Compound: C/C=C1/[C@H](O[C@@H]2O[C@H](CO)[C@@H](O)[C@H](O)[C@H]2O)OC=C(C(=O)OC)[C@H]1CC(=O)OCCc1ccc(O)c(O)c1 [oleuropein]
C/EBPα gene expression, decrease (change rate) [1]: 16% decrease
CPT1 gene expression, increase (change rate) [1]: 33% increase^
FAS gene expression, decrease (change rate) [1]: 40% decrease
IL-6 gene expression, decrease (change rate) [1]: 62% decrease
PPARγ2 gene expression, decrease (change rate) [1]: 94% decrease
TNFα gene expression, decrease (change rate) [1]: 60% decrease
aP2 gene expression, decrease (change rate) [1]: 29% decrease
CREB phosphorylation, increase (change rate) [2]: 60% increase
HSL phosphorylation, increase (change rate) [3]: 52% increase
Olfr38 expression fold change to HFD group [4, 10]: 2.35
Olfr275 expression fold change to HFD group [4, 10]: 2.49
Olfr1136 expression fold change to HFD group [4, 10]: 0.49
Olfr1204 expression fold change to HFD group [4, 10]: 2.21
Olfr1214 expression fold change to HFD group [4, 10]: 2.17
Olfr1317 expression fold change to HFD group [4, 10]: 2.89
expression of olfactory receptor 38 increased [5]: more than 2 fold change
expression of olfactory receptor 275 increased [5]: more than 2 fold change
expression of olfactory receptor 290 increased [5]: more than 2 fold change
expression of olfactory receptor 341 decreased [5]: more than 2 fold change
expression of olfactory receptor 495 decreased [5]: more than 2 fold change
expression of olfactory receptor 520 increased [5]: more than 2 fold change
expression of olfactory receptor 907 decreased [5]: more than 2 fold change
expression of olfactory receptor 971 increased [5]: more than 2 fold change
expression of olfactory receptor 1046 increased [5]: more than 2 fold change
expression of olfactory receptor 1104 increased [5]: more than 2 fold change
expression of olfactory receptor 1136 decreased [5]: more than 2 fold change
expression of olfactory receptor 1204 increased [5]: more than 2 fold change
expression of olfactory receptor 1214 increased [5]: more than 2 fold change
expression of olfactory receptor 1317 increased [5]: more than 2 fold change
expression of olfactory receptor 1447 increased [5]: more than 2 fold change
AKT phosphorylation, increase (change rate) [6]: 59% increase
Olfr290 expression fold change to HFD group [7, 10]: 2.32
Olfr341 expression fold change to HFD group [7, 10]: 0.3
Olfr495 expression fold change to HFD group [7, 10]: 0.21
Olfr520 expression fold change to HFD group [7, 10]: 2.08
Olfr907 expression fold change to HFD group [7, 10]: 0.49
Olfr971 expression fold change to HFD group [7, 10]: 2.37
Olfr1046 expression fold change to HFD group [7, 10]: 2.01
Olfr1104 expression fold change to HFD group [7, 10]: 4.39
Olfr1447 expression fold change to HFD group [7, 10]: 2.33
Olfr341 expression fold change to HFD group ([7]; supplemented to HFD-fed mouse 10 weeks, listed as Oleuropein): 0.30
C/EBPα gene expression, decrease (change rate) [8]: 22% decrease
CPT1 gene expression, increase (change rate) [8]: 50% increase^
FAS gene expression, decrease (change rate) [8]: 65 decrease %
IL-6 gene expression, decrease (change rate) [8]: 78% decrease
PGC1α gene expression, increase (change rate) [8]: 210% increase ^
PPARγ2 gene expression, decrease (change rate) [8]: 35% decrease
SIRT1 gene expression, increase (change rate) [8]: 98% increase^
TNFα gene expression, decrease (change rate) [8]: 66% decrease
UCP1 gene expression, increase (change rate) [8]: 450% increase ^
UCP3 gene expression, increase (change rate) [8]: 82% increase^
aP2 gene expression, decrease (change rate) [8]: 26% decrease
